Source: patent US20240360194A1, “New Peptides as Potent and Selective GIP Receptor Agonists” (Sanofi, priority 2021, published 2024)
Numbered stars: 1 amine (or outer) side, 2 acyl side, 3 side chain; on linkers, the order of the positions; unused ones are H or OH. Square brackets hold non-standard residues; d marks the D form. Side chains are listed from the residue outwards. Peptide text beside a SMILES is read from it. * marks the point of attachment. C18 diacid = O=C(O)CCCCCCCCCCCCCCCCC(=O)*; γGlu = O=C(O)[C@H](CCC(=O)[*:2])N[*:1]; αMeV = CC(C)[C@](C)(N)C(=O)O; AEEA = NCCOCCOCC(=O)O; Aib = CC(C)(N)C(=O)O

Target: T1, human GIP receptor (hGIPR) (Homo sapiens, UniProt P48546)
T1 sequence (P48546 22-466): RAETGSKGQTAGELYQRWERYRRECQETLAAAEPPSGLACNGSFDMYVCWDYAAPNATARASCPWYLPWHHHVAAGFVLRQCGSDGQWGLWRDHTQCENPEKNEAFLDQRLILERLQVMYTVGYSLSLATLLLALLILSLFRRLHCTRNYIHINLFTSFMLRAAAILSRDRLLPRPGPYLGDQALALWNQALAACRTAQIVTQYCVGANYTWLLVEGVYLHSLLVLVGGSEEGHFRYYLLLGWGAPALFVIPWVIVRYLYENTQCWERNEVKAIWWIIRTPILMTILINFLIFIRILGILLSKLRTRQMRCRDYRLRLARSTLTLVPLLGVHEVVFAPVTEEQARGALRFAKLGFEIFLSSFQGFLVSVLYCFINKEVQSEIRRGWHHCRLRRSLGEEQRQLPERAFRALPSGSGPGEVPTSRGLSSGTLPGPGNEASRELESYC
Assay: In vitro cellular cAMP assay for GIP receptor efficacy (HEK-293 cell line over-expressing receptor)
Format: cell-based
Details: EC50 hGIPR 0.1% BSA, HEK-293, 0.1% BSA

Structure (SMILES) | EC50 [nM]
CC[C@H](C)[C@H](NC(=O)[C@H](CCCNC(=N)N)NC(=O)[C@H](CC(=O)O)NC(=O)[C@H](CCCCNC(=O)COCCOCCNC(=O)COCCOCCNC(=O)CC[C@H](NC(=O)CCCCCCCCCCCCCCCCC(=O)O)C(=O)O)NC(=O)C(C)(C)NC(=O)[C@@H](NC(=O)[C@H](CO)NC(=O)[C@H](CC(C)C)NC(=O)[C@H](CC(=O)O)NC(=O)[C@H](CO)NC(=O)[C@@H](NC(=O)[C@@](C)(CC)NC(=O)[C@@H](NC(=O)CNC(=O)[C@H](CCC(=O)O)NC(=O)C(C)(C)NC(=O)[C@@H](N)Cc1ccc(O)cc1)[C@@H](C)O)[C@@H](C)CC)[C@@H](C)CC)C(=O)N[C@@H](Cc1c[nH]cn1)C(=O)N[C@@H](CCC(N)=O)C(=O)NC(C)(C)C(=O)N[C@@H](CCC(=O)O)C(=O)N[C@@](C)(Cc1ccccc1)C(=O)N[C@H](C(=O)N[C@@H](CCC(=O)O)C(=O)N[C@@H](Cc1c[nH]c2ccccc12)C(=O)N[C@@H](CC(C)C)C(=O)N[C@@H](CC(C)C)C(=O)N[C@@H](C)C(=O)N[C@@H](CCC(N)=O)C(=O)N[C@@H](CCCNC(=N)N)C(=O)NCC(N)=O)[C@@H](C)CC [SEQ ID NO: 18, H2N-Y-Aib-E-G-T-Iva-I-S-D-L-S-I-Aib-K[{AEEA}2-gGlu-C18OH]-D-R-I-H-Q-Aib-E-Mph-I-E-W-L-L-A-Q-R-G-NH2] | 0.0179
CC[C@H](C)[C@H](NC(=O)[C@H](Cc1ccccc1)NC(=O)[C@H](CCC(=O)O)NC(=O)[C@H](CCC(=O)O)NC(=O)[C@H](CCC(N)=O)NC(=O)[C@H](Cc1c[nH]cn1)NC(=O)[C@@H](NC(=O)[C@H](CCCNC(=N)N)NC(=O)[C@H](CC(=O)O)NC(=O)[C@H](CCCCNC(=O)COCCOCCNC(=O)COCCOCCNC(=O)CC[C@H](NC(=O)CCCCCCCCCCCCCCCCC(=O)O)C(=O)O)NC(=O)C(C)(C)NC(=O)[C@@H](NC(=O)[C@H](CO)NC(=O)[C@H](CC(C)C)NC(=O)[C@H](CC(=O)O)NC(=O)[C@H](CO)NC(=O)[C@@H](NC(=O)[C@@](C)(NC(=O)[C@@H](NC(=O)CNC(=O)[C@H](CCC(=O)O)NC(=O)C(C)(C)NC(=O)[C@@H](N)Cc1ccc(O)cc1)[C@@H](C)O)C(C)C)[C@@H](C)CC)[C@@H](C)CC)[C@@H](C)CC)C(=O)N[C@@H](CCC(=O)O)C(=O)N[C@@H](Cc1c[nH]c2ccccc12)C(=O)N[C@@H](CC(C)C)C(=O)N[C@@H](CC(C)C)C(=O)N[C@@H](C)C(=O)N[C@@H](CCC(N)=O)C(=O)NCC(=O)N1CCC[C@H]1C(=O)N[C@@H](CO)C(=O)N[C@@H](CO)C(=O)NCC(=O)N[C@@H](C)C(=O)N1CCC[C@H]1C(=O)N1CCC[C@H]1C(=O)N1CCC[C@H]1C(=O)N[C@@H](CO)C(N)=O [SEQ ID NO: 26, H2N-Y-Aib-E-G-T-Mva-I-S-D-L-S-I-Aib-K[{AEEA}2-gGlu-C18OH]-DRIHQEEFIEWLLAQGPSSGAPPPS-NH2] (H-Y[Aib]EGT[αMeV]ISDLSI[Aib]K([AEEA-AEEA-γGlu-C18 diacid])DRIHQEEFIEWLLAQGPSSGAPPPS-NH2) | 0.0602
